Assay results reported in US20120076788A1, “C-CBL AND ANTAGONISTS THEREOF FOR THE TREATMENT AND DIAGNOSIS OF CANCER” (Centre National De La Recherche Scientifique (C.N.R.S.), priority 2009, published 2012).
“Also recorded” adds a separate entry of the source.

Experiments:
LNCaP cells [1] = experiment: Protein expression in LNCaP cells cultured with hydrogen peroxide or etoposide; assay type: cell-based, human; conditions: 24 hours; for Bax protein expression: particularly upon etoposide treatment; for Bcl-2 expression / c-Cbl expression / c-IAP2 expression: versus absence of agent
Method: (§1) A. c-Cbl expression upon a 24 hours treatment with 25 or 50 nM of hydrogen peroxide respectively, or with 10 or 30 μM of etoposide respectively. Expression of the anti-apoptotic Bcl-2 and c-IAP2 proteins and of the pro-apoptotic Bcl-2 family protein Bax is also shown. B. c-Cbl expression after 48 hours of c-Cbl silencing. Expression of APE1, which is indicative of oxidative stress, is shown compared with medium control (Ctrl) and with si-control (si-Ctrl).
(§2) LNCaP is a human cell line, derived from a prostatic hormone-dependent metastatic tumor. The cells were maintained in RPMI 1640 medium (Invitrogen), supplemented with 7.5% FCS, 20 μg/ml streptomycin, 20 U/ml nystatin. LNCaP were used between the passages 50-60. For western-blotting LNCaP cells were seeded in 10cm disk (22.10^5 cells) and 6 cm disk (8.10^5 cells) respectively, with 5 disks per condition. Cells were allowed to attach for 24H and treated with various concentrations of R1881 at day 0. All the cells, including the controls, were cultured in the presence of the same ethanol concentration. For H2O2 or etoposide treatment, LNCaP cells were cultured for 24 hours in the presence of known concentrations of H2O2 or etoposide. The RNA silencing was classically done in Optimen medium (Gibco) using lipofectamine 2000 following the manufacturer's instructions (Invitrogen). The c-Cbl RNAi was generated by Eurogentec. Its sequence is: […] (SEQ ID NO: 2). The siRNA controls were purchased from Invitrogen : siRNA-A (sc-37007) and siRNA-B (sc-44230).

[2] = test system: c-Cbl KO and WT Mouse Embryonic Fibroblasts (MEF); experiment: Western blotting of apoptosis proteins in c-Cbl KO and WT MEFs treated with apoptotic inducers; assay type: cell-based; conditions: for XIAP expression, decrease relative to control level / c-IAP2 expression, decrease relative to control level: MEFs, apoptosis activation 24 hours (FIG. 3B)
Method: The western blotting (WB) experiments, immunohistochemistry (IHC) experiments and RT PCR experiments, with coamplification of the S 20 ribosomal gene, were carried out according to conventional methods already described in e.g. Omezzine et al. (2003, Biol. Reprod., 69: 752-760), Bozec et al. (2004, J. Endocr., 183: 79-90) and El Chami et al. (2005, J. Cell. Biol., 651-661).
(§3) The MEFs KO for c-cbl and the MEFs WT were cultured in DMEM, 10% FCS. The apoptosis inducers were used at a final concentration of 0.5 mM in case of H2O2, and at 10 μM in case of etoposide. The cells were tested for apoptosis 24 hours after treatment. The human prostate cancer lines were transfected with 125 nM of c-cbl IRNA for 6 hours, and were tested for quenching of c-cbl expression 24 or 48 hours after transfection. The treatment was the same with RAT1-MEN2A cells.
(§4) Each of them are known to involve different signaling routes, both leading to the mitochondrial pathway of apoptosis. Hydrogen peroxide activates C-Jun Kinase, whereas Etoposide blocks topoisomerase II causing dsDNA breaks and DNA-PK/p53 activation (DeYulia et al. 2005 Proc Natl Acad Sci USA 102:5044-9; Kamata and Hirata 1999 Cell Signal 11:1-14; Karpinich et al. 2002 J Biol Chem 277:16547-52).

[3] = test system: c-Cbl KO and WT Mouse Embryonic Fibroblasts (MEF); experiment: Apoptotic cells (DAPI nuclear fragmentation, TUNEL) in c-Cbl KO and WT MEFs treated with H2O2 or Etoposide; assay type: cell-based; design: more apoptotic cells in KO than in WT MEF cultures: dose or concentration left out as unconfirmed; conditions: for more apoptotic cells in KO than in WT MEF cultures: average, 16 or 24 H
Method: as §3, with “The apoptosis inducers were used at a final concentration of 0.5 mM in case of H2O2, and at 10 μM in case of etoposide.” left out
as §4

c-Cbl [4] = experiment: In situ c-Cbl staining of rat prostate after flutamide treatment; assay type: in vivo; conditions: 10mg/kg/day, 96 H
c-Cbl [5] = experiment: c-Cbl expression (Western blotting, RT-PCR) in prostate lobes of adult rats exposed to flutamide; assay type: in vivo, rat
cbl-b = experiment: Effectiveness of c-cbl iRNA on cbl-b
Text: (§5) The c-cbl IRNA was produced by Eurogentec and had the following sequences: 5′ […] 3′ (SEQ ID NO: 2) and 5′ […] 3′ (SEQ ID NO: 3). It is effective on human, rat and mouse c-cbl. It is ineffective on cbl-b.

LNCaP cells [6] = experiment: c-Cbl silencing in LNCaP cells, APE1/REF1 oxidative stress signal; assay type: cell-based, human; conditions: 48 hours of c-Cbl silencing, versus Ctrl and si-Ctrl
Method: as §1
as §2, with “(SEQ ID NO: 2). The siRNA controls were purchased from Invitrogen : siRNA-A (sc-37007) and siRNA-B (sc-44230).” left out

c-cbl [7] = experiment: Effectiveness of c-cbl iRNA on c-cbl; conditions: human, rat and mouse c-cbl
Text: as §5

Compound | Bax protein expression (LNCaP cells [1]) | Bcl-2 expression (LNCaP cells [1]) | c-Cbl expression (LNCaP cells [1]) | c-IAP2 expression (LNCaP cells [1]) | cleaved caspase 3 expression ([2]; KO or WT MEFs, 24 hours) | XIAP expression, decrease relative to control level [2] | c-IAP2 expression, decrease relative to control level [2] | percentage of apoptotic cells ([3]; WT MEF cultures) [%] | more apoptotic cells in KO than in WT MEF cultures [3] [%] | percentage of apoptotic cells ([3]; c-Cbl KO MEF cultures) [%] | c-Cbl expression (LNCaP cells [1]; listed as H202) | activated caspase 3 expression increase ([2]; WT MEFs, 24 hours) | cleaved (activated) caspase 3 expression relative to control ([2]; c-Cbl KO MEFs, 24 hours) | sensitivity of c-cbl KO MEF cells versus WT MEF cells ([3]; TUNEL, FIG. 10) | integrity of the epithelium border (c-Cbl [4]) | dose from which decreased c-cbl expression was observed (c-Cbl [5]; dose/effect experiments, rat ventral prostate) [mg/kg/day] | impact on the number of living cells (c-Cbl [5]; doses 2 to 10 mg/kg/day) | effectiveness on cbl-b (cbl-b) | anti-APE1/REF1 signal (oxidative stress) (LNCaP cells [6]) | effectiveness on c-cbl (c-cbl [7])
COc1cc([C@@H]2c3cc4c(cc3[C@@H](O[C@@H]3O[C@@H]5CO[C@@H](C)O[C@H]5[C@H](O)[C@H]3O)[C@H]3COC(=O)[C@H]23)OCO4)cc(OC)c1O [Etoposide] | increased | slightly less expressed | slightly less expressed; also recorded: decreased | slightly less expressed | slight but not significant increase | around one/third | around one/third | 5.8 | 29 | 4 |  |  |  |  |  |  |  |  |  | 
OO [H2O2, Hydrogen peroxide] | increased | slightly less expressed | slightly less expressed | slightly less expressed |  | around one/third | around one/third | 4.9 | 43 | 8.75 | decreased | two times | three times and half | about twice |  |  |  |  |  | 
CC(C)C(=O)Nc1ccc([N+](=O)[O-])c(C(F)(F)F)c1 [flutamide] |  |  |  |  |  |  |  |  |  |  |  |  |  |  | did not affect at all | ≥ 2 | very weak impact |  |  | 
c-cbl IRNA: c-cbl iRNA produced by Eurogentec, sequences SEQ ID NO: 2 and SEQ ID NO: 3 (chain 1 GGGAAGGCUUCUAUUUGUU; chain 2 CUGUCCAUCUAGAGACAAA; listed as RNA, chemistry not given here) |  |  |  |  |  |  |  |  |  |  |  |  |  |  |  |  |  | ineffective | slight decrease | effective
